Source: paper PMC6479946 (Molecules, 2019)
Marks after values point to notes of the source that are not given here.

Test: Pharmacokinetic study in rats after oral HAR and MEM alone and in combination (plasma, UPLC-MS/MS, non-compartmental)
Conditions: rat plasma, n = 8, mean ± SD
Description: The analytes were separated on an ACQUITY UPLC BEH C18 column (2.1 mm × 50 mm, 1.7 μm, Waters, Milford, USA). […] The flow rate was 0.3 mL/min. The column and sample-tray temperature were kept at 40 °C and 4 °C, respectively. The injection volume was 5.0 μL using a partial loop with needle over fill mode.
The compound dependent parameters used for analysis were summarized in Supplementary materials Table S1.
A rapid and convenient precipitation method was used to prepare the plasma samples. A 100 μL aliquot of plasma sample was spiked with 100 μL of IS solution and 300 μL of methanol in a 1.5 mL centrifuge tube; subsequently, the mixtures were vortex-mixed for 30.0 s and then centrifuged at 1.5 × 10^4× g for 10 min at 4 °C. A 100 μL aliquot of supernatant was combined with 25.0 μL of 0.1% formic acid water in a clean centrifuge tube and then vortex-mixed for 30 s. A 5.0 μL aliquot of mixture was injected into the UPLC-MS/MS system for analysis.
Fifty-six pathogen-free male adult rats were randomly divided into seven groups with eight rats in each group for pharmacokinetic study. […] One group was intragastrically administered with MEM hydrochloride 5.0 mg/kg dissolved in ultrapure water, namely, MEM group. […] The blood samples were immediately centrifuged at 4.0 × 10^3× g at […] for 10 min, and 100 μL of the supernatant plasma was transferred into another new 1.5 mL centrifuge tube and stored at −20 °C until UPLC-MS/MS analysis.
All standard curves and quantitative data were processed by Agilent Mass Hunter Quantitative Analysis Workstation Software. […] All the pharmacokinetic parameters were processed using the non-compartmental pharmacokinetics data analysis software program PK solutions 2.0^TM (Summit Research Services, USA). […] The AUC(0-t) was obtained by the linear/logarithmic trapezoidal rule, and the area under the plasma concentration versus time curve from zero to infinity (AUC(0-∞)) was calculated by means of the trapezoidal rule with extrapolation to infinity with a terminal elimination rate constant. The Pearson correlation coefficient analysis was processed by IBM SPSS Statistics Version 21. A statistical analysis was performed using analysis of variance with α = 0.05 as the minimal level of significance.

[1] = HOL as metabolite after oral HAR 40.0 mg/kg + MEM 5.0 mg/kg (HAR-M + MEM)
[2] = HOL as metabolite after oral HAR 40.0 mg/kg alone (HAR-M)
[3] = HOL as metabolite after oral HAR 80.0 mg/kg + MEM 5.0 mg/kg (HAR-H + MEM)
[4] = HOL as metabolite after oral HAR 80.0 mg/kg alone (HAR-H)

With harmol [HOL] the “AUC(0-t) of HOL” value [1] was 35.5 ± 15.3 ng·h/mL, the “AUC(0-∞) of HOL” value [1] was 43.1 ± 21.9 ng·h/mL and the “Cmax of HOL” value [1] was 18.0 ± 5.95 ng/mL. The “Ka of HOL” value [1] was 1.98 ± 1.72 h⁻¹, the “Ke of HOL” value [1] was 0.312 ± 0.271 h⁻¹ and the “MRT of HOL” value [1] was 5.52 ± 2.55 h. The “T1/2a of HOL” value [1] was 2.78 ± 4.59 h, the “T1/2e of HOL” value [1] was 3.53 ± 2.19 h and the “T1/2d of HOL” value [1] was 2.05 ± 1.61 h. The “Tmax of HOL” value [1] was 0.229 ± 0.0589 h, the “AUC(0-t) of HOL” value [2] was 27.1 ± 10.8 ng·h/mL and the “AUC(0-∞) of HOL” value [2] was 29.6 ± 11.3 ng·h/mL. For the same substance, the “Cmax of HOL” value [2] was 10.4 ± 2.13 ng/mL, the “Ka of HOL” value [2] was 0.808 ± 1.28 h⁻¹ and the “Ke of HOL” value [2] was 0.400 ± 0.133 h⁻¹. For the same substance, the “MRT of HOL” value [2] was 4.44 ± 1.78 h, the “T1/2a of HOL” value [2] was 2.22 ± 1.67 h and the “T1/2e of HOL” value [2] was 1.94 ± 0.712 h. For the same substance, the “T1/2d of HOL” value [2] was 1.89 ± 1.07 h, the “Tmax of HOL” value [2] was 0.198 ± 0.324 h and the “AUC(0-t) of HOL” value [3] was 158 ± 59.9 ^bbb ng*h/mL. For the same substance, the “AUC(0-∞) of HOL” value [3] was 327 ± 140 ^bbb ng*h/mL, the “Cmax of HOL” value [3] was 40.4 ± 10.9 ^bbb ng/mL and the “Ka of HOL” value [3] was 0.864 ± 1.00 h⁻¹. The “Ke of HOL” value [3] was 0.0899 ± 0.0912 ^b /h, the “MRT of HOL” value [3] was 23.5 ± 19.3 ^b h and the “T1/2a of HOL” value [3] was 2.15 ± 2.05 h. The “T1/2e of HOL” value [3] was 17.2 ± 14.7 ^b h, the “T1/2d of HOL” value [3] was 3.48 ± 4.35 h and the “Tmax of HOL” value [3] was 2.39 ± 3.52 h. The “AUC(0-t) of HOL” value [4] was 57.8 ± 19.3 ^aaa ng*h/mL, the “AUC(0-∞) of HOL” value [4] was 69.7 ± 23.1 ^aaa ng*h/mL and the “Cmax of HOL” value [4] was 32.4 ± 16.5 ^aa ng/mL. The “Ka of HOL” value [4] was 1.17 ± 1.96 h⁻¹, the “Ke of HOL” value [4] was 0.226 ± 0.0896 ^aa /h and the “MRT of HOL” value [4] was 6.04 ± 2.12 h. For the same substance, the “T1/2a of HOL” value [4] was 2.02 ± 1.52 h, the “T1/2e of HOL” value [4] was 3.57 ± 1.50 ^a h and the “T1/2d of HOL” value [4] was 2.02 ± 1.72 h. For the same substance, the “Tmax of HOL” value [4] was 0.271 ± 0.159 h.
